{"source": "the supplement of paper PMC10307832", "test_in_all_cases": "relative viability (nuclei count vs DMSO), 5 days (fraction); higher = more cells survive", "key": {"NCI-H1648": {"tested_on": "NCI-H1648", "how_it_was_run": "(§1)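 For relative viability, nuclei counts in treated wells were divided by those in vehicle wells. Lung cancer cell lines had been pin-tool dosed in 1536-well plates the day after seeding and cultured for 5 days, then fixed and stained in one step (final 0.05% Triton X-100, 1% formaldehyde, 1 ug/ml Hoechst) and imaged at 4×. Doses were one drug alone or a fixed anchor-drug dose plus five library-drug doses (not always all listed) in √10 steps, and values are duplicate-plate medians.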"}, "LCLC-97TM1": {"tested_on": "LCLC-97TM1", "how_it_was_run": "as §1"}, "NCI-H596": {"tested_on": "NCI-H596", "how_it_was_run": "as §1"}, "NCI-H1437": {"tested_on": "NCI-H1437", "how_it_was_run": "as §1"}, "NCI-H2342": {"tested_on": "NCI-H2342", "how_it_was_run": "as §1"}, "NCI-H1355": {"tested_on": "NCI-H1355", "how_it_was_run": "as §1"}, "IA-LM": {"tested_on": "IA-LM", "how_it_was_run": "as §1"}, "NCI-H1703": {"tested_on": "NCI-H1703", "how_it_was_run": "as §1"}}}
{"smiles": "CN1CCN(CCOc2cc(OC3CCOCC3)c3c(Nc4c(Cl)ccc5c4OCO5)ncnc3c2)CC1", "note": "[Saracatinib] + O=C(CCCCCCC(=O)Nc1ccccc1)NO [Vorinostat] (partner 1 µM)", "values": [{"measurement": "relative viability", "setting": "NCI-H1648; first compound 0.02 µM", "result": 0.338}, {"measurement": "relative viability", "setting": "NCI-H1648; first compound 0.2 µM", "result": 0.352}, {"measurement": "relative viability", "setting": "NCI-H1648; first compound 0.6325 µM", "result": 0.782}, {"measurement": "relative viability", "setting": "NCI-H1648; first compound 2 µM", "result": 0.433}, {"measurement": "relative viability", "setting": "LCLC-97TM1; first compound 0.02 µM", "result": 0.775}, {"measurement": "relative viability", "setting": "LCLC-97TM1; first compound 0.2 µM", "result": 0.411}, {"measurement": "relative viability", "setting": "LCLC-97TM1; first compound 0.6325 µM", "result": 0.839}, {"measurement": "relative viability", "setting": "LCLC-97TM1; first compound 2 µM", "result": 0.554}, {"measurement": "relative viability", "setting": "NCI-H596; first compound 0.02 µM", "result": 0.568}, {"measurement": "relative viability", "setting": "NCI-H596; first compound 0.2 µM", "result": 0.511}, {"measurement": "relative viability", "setting": "NCI-H596; first compound 0.6325 µM", "result": 0.585}, {"measurement": "relative viability", "setting": "NCI-H596; first compound 2 µM", "result": 0.406}, {"measurement": "relative viability", "setting": "NCI-H1437; first compound 0.02 µM", "result": 1.05}, {"measurement": "relative viability", "setting": "NCI-H1437; first compound 0.2 µM", "result": 0.995}, {"measurement": "relative viability", "setting": "NCI-H1437; first compound 0.6325 µM", "result": 1.14}, {"measurement": "relative viability", "setting": "NCI-H1437; first compound 2 µM", "result": 1.17}, {"measurement": "relative viability", "setting": "NCI-H2342; first compound 0.02 µM", "result": 0.774}, {"measurement": "relative viability", "setting": "NCI-H2342; first compound 0.2 µM", "result": 0.747}, {"measurement": "relative viability", "setting": "NCI-H2342; first compound 0.6325 µM", "result": 0.782}, {"measurement": "relative viability", "setting": "NCI-H2342; first compound 2 µM", "result": 0.833}, {"measurement": "relative viability", "setting": "NCI-H1355; first compound 0.02 µM", "result": 0.668}, {"measurement": "relative viability", "setting": "NCI-H1355; first compound 0.2 µM", "result": 0.62}, {"measurement": "relative viability", "setting": "NCI-H1355; first compound 0.6325 µM", "result": 0.7}, {"measurement": "relative viability", "setting": "NCI-H1355; first compound 2 µM", "result": 0.587}, {"measurement": "relative viability", "setting": "IA-LM; first compound 0.02 µM", "result": 1.01}, {"measurement": "relative viability", "setting": "IA-LM; first compound 0.6325 µM", "result": 1.4}, {"measurement": "relative viability", "setting": "IA-LM; first compound 2 µM", "result": 0.798}]}
{"smiles": "Cc1cn(-c2cc(NC(=O)c3ccc(C)c(Nc4nccc(-c5cccnc5)n4)c3)cc(C(F)(F)F)c2)cn1", "note": "[Nilotinib] + NC(=O)Nc1cc(-c2cccc(F)c2)sc1C(=O)N[C@H]1CCCNC1 [AZD7762] (partner 0.2 µM)", "values": [{"measurement": "relative viability", "setting": "NCI-H1648; first compound 0.001 µM", "result": 0.561}, {"measurement": "relative viability", "setting": "NCI-H1648; first compound 0.003162 µM", "result": 0.664}, {"measurement": "relative viability", "setting": "NCI-H1648; first compound 0.01 µM", "result": 0.663}, {"measurement": "relative viability", "setting": "NCI-H1648; first compound 0.03162 µM", "result": 0.569}, {"measurement": "relative viability", "setting": "NCI-H1648; first compound 0.1 µM", "result": 0.65}, {"measurement": "relative viability", "setting": "LCLC-97TM1; first compound 0.003162 µM", "result": 0.366}, {"measurement": "relative viability", "setting": "LCLC-97TM1; first compound 0.1 µM", "result": 0.0966}, {"measurement": "relative viability", "setting": "NCI-H596; first compound 0.001 µM", "result": 1.11}, {"measurement": "relative viability", "setting": "NCI-H596; first compound 0.003162 µM", "result": 1.02}, {"measurement": "relative viability", "setting": "NCI-H596; first compound 0.01 µM", "result": 1.11}, {"measurement": "relative viability", "setting": "NCI-H596; first compound 0.03162 µM", "result": 1.13}, {"measurement": "relative viability", "setting": "NCI-H596; first compound 0.1 µM", "result": 1.01}, {"measurement": "relative viability", "setting": "NCI-H1437; first compound 0.001 µM", "result": 1.16}, {"measurement": "relative viability", "setting": "NCI-H1437; first compound 0.003162 µM", "result": 0.888}, {"measurement": "relative viability", "setting": "NCI-H1437; first compound 0.01 µM", "result": 1.12}, {"measurement": "relative viability", "setting": "NCI-H1437; first compound 0.03162 µM", "result": 0.899}, {"measurement": "relative viability", "setting": "NCI-H1437; first compound 0.1 µM", "result": 1.1}, {"measurement": "relative viability", "setting": "NCI-H2342; first compound 0.001 µM", "result": 0.425}, {"measurement": "relative viability", "setting": "NCI-H2342; first compound 0.003162 µM", "result": 0.315}, {"measurement": "relative viability", "setting": "NCI-H2342; first compound 0.01 µM", "result": 0.411}, {"measurement": "relative viability", "setting": "NCI-H2342; first compound 0.03162 µM", "result": 0.463}, {"measurement": "relative viability", "setting": "NCI-H2342; first compound 0.1 µM", "result": 0.427}, {"measurement": "relative viability", "setting": "NCI-H1355; first compound 0.001 µM", "result": 0.718}, {"measurement": "relative viability", "setting": "NCI-H1355; first compound 0.003162 µM", "result": 0.782}, {"measurement": "relative viability", "setting": "NCI-H1355; first compound 0.01 µM", "result": 0.801}, {"measurement": "relative viability", "setting": "NCI-H1355; first compound 0.03162 µM", "result": 0.439}, {"measurement": "relative viability", "setting": "NCI-H1355; first compound 0.1 µM", "result": 0.583}, {"measurement": "relative viability", "setting": "NCI-H1703; first compound 0.001 µM", "result": 0.117}, {"measurement": "relative viability", "setting": "NCI-H1703; first compound 0.003162 µM", "result": 0.121}, {"measurement": "relative viability", "setting": "NCI-H1703; first compound 0.01 µM", "result": 0.11}, {"measurement": "relative viability", "setting": "NCI-H1703; first compound 0.03162 µM", "result": 0.121}, {"measurement": "relative viability", "setting": "NCI-H1703; first compound 0.1 µM", "result": 0.117}]}
{"smiles": "CCNC(=O)c1noc(-c2cc(C(C)C)c(O)cc2O)c1-c1ccc(CN2CCOCC2)cc1", "note": "[Luminespib] + O=C(CCCCCCC(=O)Nc1ccccc1)NO [Vorinostat] (partner 1 µM)", "values": [{"measurement": "relative viability", "setting": "NCI-H1648; first compound 0.002 µM", "result": 0.299}, {"measurement": "relative viability", "setting": "NCI-H1648; first compound 0.006325 µM", "result": 0.502}, {"measurement": "relative viability", "setting": "NCI-H1648; first compound 0.02 µM", "result": 0.344}, {"measurement": "relative viability", "setting": "NCI-H1648; first compound 0.06325 µM", "result": 0.566}, {"measurement": "relative viability", "setting": "NCI-H1648; first compound 0.2 µM", "result": 0.348}, {"measurement": "relative viability", "setting": "LCLC-97TM1; first compound 0.002 µM", "result": 0.555}, {"measurement": "relative viability", "setting": "LCLC-97TM1; first compound 0.006325 µM", "result": 0.545}, {"measurement": "relative viability", "setting": "LCLC-97TM1; first compound 0.06325 µM", "result": 0.0694}, {"measurement": "relative viability", "setting": "LCLC-97TM1; first compound 0.2 µM", "result": 0.0638}, {"measurement": "relative viability", "setting": "NCI-H596; first compound 0.002 µM", "result": 0.61}, {"measurement": "relative viability", "setting": "NCI-H596; first compound 0.006325 µM", "result": 0.553}, {"measurement": "relative viability", "setting": "NCI-H596; first compound 0.02 µM", "result": 0.434}, {"measurement": "relative viability", "setting": "NCI-H596; first compound 0.06325 µM", "result": 0.634}, {"measurement": "relative viability", "setting": "NCI-H596; first compound 0.2 µM", "result": 0.574}, {"measurement": "relative viability", "setting": "NCI-H1437; first compound 0.002 µM", "result": 0.92}, {"measurement": "relative viability", "setting": "NCI-H1437; first compound 0.006325 µM", "result": 0.828}, {"measurement": "relative viability", "setting": "NCI-H1437; first compound 0.02 µM", "result": 0.82}, {"measurement": "relative viability", "setting": "NCI-H1437; first compound 0.06325 µM", "result": 0.601}, {"measurement": "relative viability", "setting": "NCI-H1437; first compound 0.2 µM", "result": 0.218}, {"measurement": "relative viability", "setting": "NCI-H2342; first compound 0.002 µM", "result": 0.766}, {"measurement": "relative viability", "setting": "NCI-H2342; first compound 0.006325 µM", "result": 0.809}, {"measurement": "relative viability", "setting": "NCI-H2342; first compound 0.02 µM", "result": 0.467}, {"measurement": "relative viability", "setting": "NCI-H2342; first compound 0.06325 µM", "result": 0.679}, {"measurement": "relative viability", "setting": "NCI-H2342; first compound 0.2 µM", "result": 0.416}, {"measurement": "relative viability", "setting": "NCI-H1355; first compound 0.002 µM", "result": 0.581}, {"measurement": "relative viability", "setting": "NCI-H1355; first compound 0.006325 µM", "result": 0.641}, {"measurement": "relative viability", "setting": "NCI-H1355; first compound 0.02 µM", "result": 0.38}, {"measurement": "relative viability", "setting": "NCI-H1355; first compound 0.06325 µM", "result": 0.398}, {"measurement": "relative viability", "setting": "NCI-H1355; first compound 0.2 µM", "result": 0.12}, {"measurement": "relative viability", "setting": "IA-LM; first compound 0.002 µM", "result": 0.918}, {"measurement": "relative viability", "setting": "IA-LM; first compound 0.006325 µM", "result": 0.934}, {"measurement": "relative viability", "setting": "IA-LM; first compound 0.02 µM", "result": 0.64}, {"measurement": "relative viability", "setting": "IA-LM; first compound 0.06325 µM", "result": 0.077}, {"measurement": "relative viability", "setting": "IA-LM; first compound 0.2 µM", "result": 0.0416}]}
